Like-named read-outs stand apart in the source and are kept apart here.
Assays:
[1] = Cellular toxicity in the HIV cell-line MT-4; assay type: cell-based; conditions: human, MT-4 cells, read-out: CC50 (μM) (MT4)
Description: (§1) Also the HIV activity is given (EC50 HIV (μM)) and the cellular toxicity in the HIV cell-line (CC50 (μM) (MT-4)).

HIV [2] = experiment: HIV activity; assay type: cell-based; conditions: Human immunodeficiency virus 1, read-out: EC50 (μM) (HIV)
Description: as §1

HCV type 1b replicon = experiment: HCV replicon assay (Huh-Luc cells, luciferase readout); assay type: cell-based; conditions: Hepatitis C virus, 72 h, read-out: EC50 (μM) (HCV)
Description: (§2) The in vitro antiviral activity against HCV of the compounds of formula I can be tested in a cellular HCV replicon system based on Lohmann et al. (1999) Science 285:110-113, with the further modifications described by Krieger et al. (2001) Journal of Virology 75: 4614-4624 (incorporated herein by reference), which is further exemplified in the examples section. This model, while not a complete infection model for HCV, is widely accepted as the most robust and efficient model of autonomous HCV RNA replication currently available. It will be appreciated that it is important to distinguish between compounds that specifically interfere with HCV functions from those that exert cytotoxic or cytostatic effects in the HCV replicon model, and as a consequence cause a decrease in HCV RNA or linked reporter enzyme concentration. Assays are known in the field for the evaluation of cellular cytotoxicity based for example on the activity of mitochondrial enzymes using fluorogenic redox dyes such as resazurin. Furthermore, cellular counter screens exist for the evaluation of non-selective inhibition of linked reporter gene activity, such as firefly luciferase. Appropriate cell types can be equipped by stable transfection with a luciferase reporter gene whose expression is dependent on a constitutively active gene promoter, and such cells can be used as a counter-screen to eliminate non-selective inhibitors.
The compounds of formula I were examined for activity in the inhibition of HCV-RNA replication in a cellular assay. […] The cellular assay was based on a bicistronic expression construct, as described by Lohmann et al. (1999) Science vol. 285 pp. 110-113 with modifications described by Krieger et al. (2001) Journal of Virology 75: 4614-4624, in a multi-target screening strategy.
In essence, the method was as follows. The assay utilized the stably transfected cell line Huh-7 luc/neo (hereafter referred to as Huh-Luc). This cell line harbors an RNA encoding a bicistronic expression construct comprising the wild type NS3-NS5B regions of HCV type 1b translated from an internal ribosome entry site (IRES) from encephalomyocarditis virus (EMCV), preceded by a reporter portion (FfL-luciferase), and a selectable marker portion (neo^R, neomycine phosphotransferase). The construct is bordered by 5′ and 3′ NTRs (non-translated regions) from HCV genotype 1b. Continued culture of the replicon cells in the presence of G418 (neo^R) is dependent on the replication of the HCV-RNA. The stably transfected replicon cells that express HCV-RNA, which replicates autonomously and to high levels, encoding inter alia luciferase, were used for screening the antiviral compounds.
The replicon cells were plated in 384-well plates in the presence of the test and control compounds which were added in various concentrations. Following an incubation of three days, HCV replication was measured by assaying luciferase activity (using standard luciferase assay substrates and reagents and a Perkin Elmer ViewLux™ ultraHTS microplate imager). Replicon cells in the control cultures have high luciferase expression in the absence of any inhibitor. The inhibitory activity of the compound on luciferase activity was monitored on the Huh-Luc cells, enabling a dose-response curve for each test compound. EC50 values were then calculated, which value represents the amount of the compound required to decrease the level of detected luciferase activity by 50%, or more specifically, the ability of the genetically linked HCV replicon RNA to replicate.

[3] = Cytotoxicity in Huh-7 cells; assay type: cell-based; conditions: human
Description: as §2, with “inhibitors. […]” for “inhibitors.”

HIV [4] = conditions: described in Org. Biomol. Chem., 2003, 3514-3526; cited from earlier work
[5] = Huh-Luc replicon cells, HCV type 1b, three days incubation, luciferase activity

Row | Compound | CC50 [1] [µM] | EC50 (HIV [2]) [µM] | EC50 (HCV type 1b replicon; [5]) [µM] | CC50 [3] [µM] | EC50 (HCV type 1b replicon) [µM] | activity against HIV (HIV [4])
1 | CCCCOC(=O)[C@H](C)NP(=O)(OC[C@H]1O[C@@H](n2ccc(=O)[nH]c2=O)[C@@]2(CCO2)[C@@H]1O)Oc1ccccc1 (stereo partly drawn) [Compound 12d] | > 98 | > 98 | 5.5 | > 98 | – | –
2 | CC[C@H](NP(=O)(OC[C@H]1O[C@@H](n2ccc(=O)[nH]c2=O)[C@@]2(CCO2)[C@@H]1O)Oc1ccccc1)C(=O)OC(C)C (stereo partly drawn) [Compound 12i] | > 98 | > 98 | > 96 | > 98 | – | –
3 | Cc1ccc(C(C)C)c(OP(=O)(N[C@@H](C)C(=O)OCc2ccccc2)OC[C@H]2O[C@@H](n3ccc(=O)[nH]c3=O)[C@@]3(CCO3)[C@@H]2O)c1 (stereo partly drawn) [Compound 12f] | 1.3 | > 98 | 8.7 | 18.7 | – | –
4 | C[C@H](NP(=O)(OC[C@H]1O[C@@H](n2ccc(=O)[nH]c2=O)[C@@]2(CCO2)[C@@H]1O)Oc1ccccc1)C(=O)OCc1ccccc1 (stereo partly drawn) [Compound 12b] | > 98 | > 98 | 3.7 | > 98 | – | –
5 | O=C(OCc1ccccc1)[C@@H](NP(=O)(OC[C@H]1O[C@@H](n2ccc(=O)[nH]c2=O)[C@@]2(CCO2)[C@@H]1O)Oc1ccccc1)c1ccccc1 (stereo partly drawn) [Compound 12h] | > 98 | > 98 | – | > 88 | 79.6 | –
6 | CC(C)COC(=O)[C@H](C)NP(=O)(OC[C@H]1O[C@@H](n2ccc(=O)[nH]c2=O)[C@@]2(CCO2)[C@@H]1O)Oc1ccccc1 (stereo partly drawn) [Compound 12l] | > 98 | > 98 | 0.44 | > 98 | – | –
7 | CC(C)OC(=O)[C@H](C)NP(=O)(OC[C@H]1O[C@@H](n2ccc(=O)[nH]c2=O)[C@@]2(CCO2)[C@@H]1O)Oc1ccccc1 (stereo partly drawn) [Compound 12g] | > 98 | > 98 | 17.8 | > 98 | – | –
8 | COC(=O)C(C)(C)NP(=O)(OC[C@H]1O[C@@H](n2ccc(=O)[nH]c2=O)[C@@]2(CCO2)[C@@H]1O)Oc1ccccc1 (stereo partly drawn) [Compound 12e, methyl 2-[[[(4R,5R,7R,8R)-5-(2,4-dioxo-3,4-dihydropyrimidin-1(2H)-yl)-8-hydroxy-1,6-dioxaspiro[3.4]octan-7-yl]methoxy](phenoxy)phosphorylamino]-2-methylpropanoate] | > 98 | > 98 | 23.4 | > 98 | – | –
9 | C[C@H](NP(=O)(OC[C@H]1O[C@@H](n2ccc(=O)[nH]c2=O)[C@@]2(CCO2)[C@@H]1O)Oc1ccc(Cl)cc1)C(=O)OCc1ccccc1 (stereo partly drawn) [Compound 12j] | > 98 | > 98 | 0.7 | > 98 | – | –
10 | CC[C@H](NP(=O)(OC[C@H]1O[C@@H](n2ccc(=O)[nH]c2=O)[C@@]2(CCO2)[C@@H]1O)Oc1ccccc1)C(=O)OCc1ccccc1 (stereo partly drawn) [Compound 12a] | > 98 | > 98 | 3.4 | > 98 | – | –
11 | O=C(CNP(=O)(OC[C@H]1O[C@@H](n2ccc(=O)[nH]c2=O)[C@@]2(CCO2)[C@@H]1O)Oc1ccc(Cl)cc1)OCc1ccccc1 (stereo partly drawn) [Compound 12m] | > 98 | > 98 | 7.17 | > 98 | – | –
12 | Cc1cn([C@@H]2O[C@H](CO)[C@@H](O)[C@]23CCO3)c(=O)[nH]c1=O [1-(2-O,2-C-ethano-β-D-ribofuranosyl)thymine] | – | – | – | – | – | no activity
13 | O=c1ccn([C@@H]2O[C@H](CO)[C@@H](O)[C@]23CCO3)c(=O)[nH]1 [1-(2-O,2-C-ethano-β-D-ribofuranosyl)uracil] | – | – | – | – | – | no activity
14 | C[C@H](NP(=O)(OC[C@H]1O[C@@H](n2ccc(=O)[nH]c2=O)[C@@]2(CCO2)[C@@H]1O)Oc1ccccc1)C(=O)OCC(C)(C)C (stereo partly drawn) [Compound 12c] | > 98 | > 98 | 5.6 | > 98 | – | –
15 | C[C@H](NP(=O)(OC[C@H]1O[C@@H](n2ccc(=O)[nH]c2=O)[C@@]2(CCO2)[C@@H]1O)Oc1cccc2ccccc12)C(=O)OCc1ccccc1 (stereo partly drawn) [Compound 12k] | > 98 | > 76.9 | 2 | > 98 | – | –

Source: patent US8933052B2, “Uracyl spirooxetane nucleosides” (Janssen Products, LP, priority 2009, dated 2015)
